Reference: patent publication US12268723B2, “Peptidomimetics for the treatment of coronavirus and picorna virus infections” (priority 2019, dated 2025)
pEC50, pIC50: −log10 of the molar value. Where two headings read alike, the source gives them in different places.

Experiments:
[1] = Cytotoxicity (MTS) in RD cells; format: cell-based, human; details: human, RD (rhabdomyosarcoma) cells
Description: Compounds are tested for cytotoxicity using a MTS (3-(4,5-dimethylthiazol-2-yl)-5-(3-carboxymethoxyphenyl)-2-(4-sulfophenyl)-2H-tetrazolium) method and the CC50 (IC50) values (cytotoxic concentrations of drug required to reduce cell viability by 50%) are determined for each test compound in human rhabdomyosarcoma (RD) cell line. In addition, the maximum non-toxic concentrations (MNTC) are also determined for each compound. To avoid potential drug toxicity that would interfere with viral cytopathic effect (CPE), compounds are evaluated at nontoxic concentrations. The resultant inhibitory effect of each test compound is calculated as a percentage of decrease in EV-71 CPE. Briefly, a monolayer of RD cells is prepared in a 96-well plates. The cells are then infected with 1 MOI of EV-71 (BrCr strain) followed by treatment with a single non-toxic dose of each compound in triplicate. The vehicle control wells are treated with 0.1% DMSO diluted in the working media. […] The dose-response antiviral activity of each compound is determined by a virus yield reduction assay method. Briefly, confluent monolayers of RD cells in 96-wells microplate are infected with 0.1 MOI of EV-71 followed by treatment with compounds. […] Quantitative PCR measurement was performed using StepOnePlus real time PCR system ([…]) according to manufacturer's protocol.

[2] = test system: Enterovirus EV-71 (BrCr strain); assay: Anti-enterovirus activity, EV-71 virus yield reduction (qRT-PCR) in RD cells; format: cell-based; details: for pEC50 / EC90: 0.1 MOI, 2 days post-treatment; for pEC50: read-out: EC50 against Enterovirus EV-71 (BrCr strain); for EC90: read-out: EC90 against Enterovirus EV-71 (BrCr strain); for pIC50: given as IC50, read-out: IC50 against Enterovirus EV-71 (BrCr strain); for IC90: given as IC90, read-out: IC90 against Enterovirus EV-71 (BrCr strain)
Description: Compounds are tested for cytotoxicity using a MTS (3-(4,5-dimethylthiazol-2-yl)-5-(3-carboxymethoxyphenyl)-2-(4-sulfophenyl)-2H-tetrazolium) method and the CC50 (IC50) values (cytotoxic concentrations of drug required to reduce cell viability by 50%) are determined for each test compound in human rhabdomyosarcoma (RD) cell line. In addition, the maximum non-toxic concentrations (MNTC) are also determined for each compound. To avoid potential drug toxicity that would interfere with viral cytopathic effect (CPE), compounds are evaluated at nontoxic concentrations. The resultant inhibitory effect of each test compound is calculated as a percentage of decrease in EV-71 CPE. Briefly, a monolayer of RD cells is prepared in a 96-well plates. The cells are then infected with 1 MOI of EV-71 (BrCr strain) followed by treatment with a single non-toxic dose of each compound in triplicate. The vehicle control wells are treated with 0.1% DMSO diluted in the working media. The plate is then incubated for 48 h at which time the virus-control wells produced detectable CPE. To determine the probable CPE inhibitory effect of test compounds, an MTS assay is performed and effective compounds are chosen for further studies to identify the potency of the compounds and their concentration-dependent manner. The dose-response antiviral activity of each compound is determined by a virus yield reduction assay method. Briefly, confluent monolayers of RD cells in 96-wells microplate are infected with 0.1 MOI of EV-71 followed by treatment with compounds. Effective compounds are further quantified and confirmed with a virus-yield-reduction assay using an optimized in house qRT-PCR to determine the EV-71 RNA copy number after 2 days post-treatment from collected supernatants. qRT-PCR is performed using the EV-71 specific probe/primer mix and qScript-Tough master mix (Quantibio, USA). Quantitative PCR measurement was performed using StepOnePlus real time PCR system ([…]) according to manufacturer's protocol. The median effective concentration (EC50) and the concentration with 90% of inhibitory effect (EC90) are calculated using GraphPad PRISM for Windows, version 5 (GraphPad Software Inc., San Diego, CA, 2005) as the means±standard deviation (SD) of the mean from triplicate assay from three independent experiments.

Row | SMILES | CC50 [1] [µM] | pEC50 ([2]; RD, 48 h) | EC90 ([2]; RD, 48 h) [nM] | pEC50 [2] | EC90 [2] [nM] | pIC50 [2] | IC90 [2] [nM] | CC50 ([1]; unit inferred) [µM]
1 | CC(C)C[C@H](NC(=O)[C@H](Cc1ccc(F)cc1)NC(=O)c1cnccn1)C(=O)N[C@H](C=O)C[C@@H]1CCCNC1=O | > 100 | 6.55 | 570 | – | – | – | – | –
2 | Cc1cc(C(=O)N[C@@H](Cc2cccc3ccccc23)C(=O)N[C@@H](CC(C)C)C(=O)NC(C=O)C[C@@H]2CCCNC2=O)no1 (single isomer, unassigned) | > 100 | – | – | 8.77 | 7.5 | – | – | –
3 | CC(C)C[C@H](NC(=O)[C@H](Cc1cccc2ccccc12)NC(=O)OCc1ccccc1)C(=O)N[C@@H](C[C@@H]1CCCNC1=O)C(O)S(=O)(=O)O (stereo partly drawn) [drawing 134] | 95 | – | – | – | – | 7.93 | 30 | –
4 | CC(C)C[C@H](NC(=O)[C@H](Cc1ccc(O)cc1)NC(=O)OCc1ccccc1)C(=O)N[C@H](C=O)C[C@@H]1CCCNC1=O | > 100 | 6.72 | 360 | – | – | – | – | –
5 | Cc1cc(C(=O)N[C@@H](Cc2ccc(F)cc2)C(=O)N[C@@H](CC(C)C)C(=O)N[C@H](C=O)C[C@@H]2CCCNC2=O)no1 | > 100 | 8.03 | 16.6 | – | – | – | – | –
6 | COC(=O)C1O[C@@H]1[C@H](C[C@@H]1CCNC1=O)NC(=O)[C@H](CC(C)C)NC(=O)[C@H](Cc1cccc2ccccc12)NC(=O)OCc1ccccc1 (stereo partly drawn) | 80.2 | 6.72 | 360 | – | – | – | – | –
7 | CC(C)C[C@H](NC(=O)[C@H](Cc1cccc2ccccc12)NC(=O)OCc1ccccc1)C(=O)N[C@H](C=O)C[C@@H]1CCNC1=O | > 100 | 7.05 | 260 | – | – | – | – | –
8 | CC(C)C[C@H](NC(=O)[C@H](Cc1cccc2ccccc12)NC(=O)OCc1ccccc1)C(=O)N[C@@H](CC1CCNC1=O)[C@H]1O[C@@H]1S(C)(=O)=O (stereo partly drawn) | > 100 | 5.84 | 5020 | – | – | – | – | –
9 | CC(C)C[C@H](NC(=O)[C@H](Cc1cccc2ccccc12)NC(=O)c1cnccn1)C(=O)N[C@H](C=O)C[C@@H]1CCCNC1=O | > 100 | 7.80 | 47.5 | – | – | – | – | –
10 | CC(C)C[C@H](NC(=O)[C@H](Cc1ccc(O)cc1)NC(=O)OCc1ccccc1)C(=O)N[C@H](C=O)CC1CCNC1=O (stereo partly drawn) | – | 5.64 | 4800 | – | – | – | – | > 100
11 | CC(C)C[C@H](NC(=O)[C@@H](Cc1cccc2ccccc12)NC(=O)OCc1ccccc1)C(=O)N[C@H](C=O)C[C@@H]1CCCNC1=O | 32.5 | – | – | – | – | 8.06 | 30 | –
12 | CC(C)C[C@H](NC(=O)[C@H](Cc1cccc2ccccc12)NC(=O)OCCc1ccccc1)C(=O)N[C@H](C=O)C[C@@H]1CCNC1=O | 42.5 | 6.12 | 2110 | – | – | – | – | –
13 | CC(C)C[C@H](NC(=O)[C@H](Cc1cccc2ccccc12)NC(=O)OCc1ccccc1)C(=O)N[C@@H](C[C@@H]1CCCNC1=O)C(=O)C(F)(F)F [drawing 122] | 65 | 6.49 | 580 | – | – | – | – | –
14 | CC(C)C[C@H](NC(=O)[C@H](Cc1cccc2ccccc12)NC(=O)OCc1ccccc1)C(=O)N[C@@H](C[C@@H]1CCCNC1=O)C(O)C(F)(F)F (stereo partly drawn) [drawing 125] | 25 | 6.51 | 580 | – | – | – | – | –
15 | CC(C)C[C@H](NC(=O)[C@H](Cc1cccc2ccccc12)NC(=O)c1cnccn1)C(=O)N[C@H](C=O)C[C@@H]1CCNC1=O | > 100 | – | – | – | – | 7.76 | 64 | –
16 | Cc1cc(C(=O)N[C@@H](CC(C)C)C(=O)N[C@H](C=O)C[C@@H]2CCCNC2=O)no1 | > 100 | 5.96 | 4000 | – | – | – | – | –
17 | CC(C)C[C@H](NC(=O)[C@H](Cc1ccc(F)cc1)NC(=O)OCc1ccccc1)C(=O)N[C@H](C=O)C[C@@H]1CCCNC1=O [drawing 135] | > 100 | – | – | – | – | 7.99 | 29.1 | –
18 | CC(C)C[C@H](NC(=O)OCc1ccccc1)C(=O)NC(C=O)C[C@@H]1CCCNC1=O (stereo partly drawn) | > 100 | 7.30 | 130 | – | – | – | – | –
19 | CC(C)C[C@H](NC(=O)[C@H](Cc1ccc(F)cc1)NC(=O)c1cnccn1)C(=O)N[C@H](C=O)C[C@@H]1CCNC1=O | > 100 | – | – | – | – | 7.05 | 570 | –
